Measured values taken from ChEMBL document CHEMBL1649170, “Functional characterization of the sigmaB-dependent yabJ-spoVG operon in Staphylococcus aureus: role in methicillin and glycopeptide resistance” (2009).
Values after ≈ are worked out from the molar mass of the structure shown.

How the values were obtained:
Assay type in all cases: functional
[1] = tested on: Staphylococcus aureus; test: Antimicrobial activity against methicillin-resistant and tetracycline-sensitive Staphylococcus aureus COL mutant by broth microdilution method
[2] = tested on: Staphylococcus aureus; test: Antimicrobial activity against methicillin- and tetracycline resistant Staphylococcus aureus COL by broth microdilution method
[3] = tested on: Staphylococcus aureus; test: Antimicrobial activity against erythromycin-resistant, tetracycline-sensitive and rsbUVW-sigB operon deficient Staphylococcus aureus COL mutant by broth microdilution method
[4] = tested on: Staphylococcus aureus; test: Antimicrobial activity against erythromycin-resistant and rsbUVW-sigB operon deficient Staphylococcus aureus COL by broth microdilution method
[5] = tested on: Staphylococcus aureus; test: Antimicrobial activity against erythromycin-, tetracycline resistant and yabJ-spoVG operon deficient Staphylococcus aureus COL by broth microdilution method
[6] = tested on: Staphylococcus aureus; test: Antimicrobial activity against erythromycin-resistant, tetracycline-sensitive and yabJ-spoVG operon deficient Staphylococcus aureus COL mutant by broth microdilution method

`Cc1onc(-c2ccccc2)c1C(=O)N[C@@H]1C(=O)N2[C@@H]1SC(C)(C)[C@@H]2C(=O)O` [OXACILLIN] showed an MIC [1] of over 256 µg/mL, an MIC [2] of over 256 µg/mL and an MIC [3] of over 256 µg/mL. The MIC [4] was 256 µg/mL (≈ 638 µM), the MIC [5] was 128 µg/mL (≈ 319 µM) and the MIC [6] was over 256 µg/mL.
